Measurements: patent US20230149508A1, “COMPOSITIONS AND METHODS FOR TREATING COMPLICATIONS OF VIRAL INFECTIONS AND OTHER RESPIRATORY DISORDERS” (priority 2020, published 2023)
“Also recorded” adds a separate entry of the source. Peptide text beside a SMILES is read from it. * marks the point of attachment. Biotin = O=C1N[C@H]2[C@H](CS[C@H]2CCCCC(=O)*)N1; Ahx = NCCCCCC(=O)O

How the values were obtained:
[1] = system: C57BL/6 mice intranasally challenged with a lethal dose of lipopolysaccharide (LPS); test: Lethal LPS-induced lung injury (ARDS) mouse model, survival; type: in vivo; conditions: p<0.01 vs LPS, n=10/group
Protocol: C57BL/6 mice were pretreated with either 1000 uM aCT1, 1000 uM scrambled aCT1, or vehicle control prior to inoculation with a lethal dose (35 mg/kg/mouse) of LPS. A further group was treated with aCT1 6 hrs post inoculation of LPS. n=10/group (p<0.01 LPS vs LPS pre-aCT1, p<0.01 LPS vs LPS post aCT1).
Studies were undertaken to assess whether delivery of aCT1 to the respiratory tract in animal models of ARDS would reduce epithelial and endothelial breakdown, thereby preserving the air-liquid barrier while preventing fluid accumulation and reducing immune cell infiltration, resulting in the amelioration of ARDS pathology and preserving lung function to improve survival. Using a well characterized mouse model of ARDS, we investigated whether aCT1 applied directly to the lungs could inhibit severe endotoxin induced lung injury. C57BL/6 mice were intranasally challenged with a lethal dose of lipopolysaccharide (LPS) and were treated with aCT1 immediately prior to LPS administration, or 6 h post LPS exposure (FIG. 2).

[2] = system: normal human bronchial epithelial cells (NHBE); test: Trans-epithelial resistance (TER) of NHBE monolayers after H2O2 exposure; type: cell-based; conditions: aCT1 pre-treatment, exposure to 100 mM H2O2; n=3
Protocol: (n=3, compared to H2O2 *:p<0.05, **:p<0.01, ***:p<0.0001)
(§1) To determine if aCT1 treatment preserves junctional integrity in human lung cells, human bronchial epithelial cells (NHBEs) were grown as confluent monolayers on Transwell inserts and trans-epithelial resistance (TER) recorded. TER readings measure electrical resistance across a cell monolayer and provide a quantitative metric of intercellular junction integrity.

[3] = system: Human lung microvascular endothelial cells (HLMEC); test: TER of HLMEC after LPS exposure; type: cell-based; conditions: n=3, p<0.0001 vs LPS
Protocol: Human lung microvascular endothelial cells (HLMEC) were exposed to 10 μg LPS. Cells were treated with aCT1 prior to exposure or 24 hrs post LPS insult, scrambled control, or sham control. […] (n=3, compared to LPS ***:p<0.0001).
as §1

[4] = Intravenous (bolus) toxicity of aCT1 in rats; type: in vivo, rat; conditions: rat, in vivo
Protocol: (§2) Clinical signs were only observed at aCT1 administration levels that are well above the therapeutic range of efficacy, following intravenous administration of aCT1 at ≥10 mg/kg (Maximum Tolerated Dose). The results of these studies uniformly support aCT1 tolerability when delivered locally and systemically via various routes.

rats = test: Intravenous (bolus) toxicity of aCT1 in rats; type: in vivo, rat; conditions: intravenous bolus
Protocol: as §2

[5] = Source text: (§3) Clinical trials have been undertaken to assess safety of topical delivery of aCT1.
human subjects [6] = conditions: in vivo
Source text: as §3

human subjects [7] = conditions: local (topical) delivery, clinical trials; cited from earlier work

CC[C@H](C)[C@H](NC(=O)[C@H](CCC(=O)O)NC(=O)[C@H](CC(C)C)NC(=O)[C@H](CC(=O)O)NC(=O)[C@H](CC(=O)O)NC(=O)[C@@H]1CCCN1C(=O)[C@H](CCCNC(=N)N)NC(=O)[C@@H]1CCCN1C(=O)[C@H](CCCNC(=N)N)NC(=O)[C@H](CCCCN)NC(=O)[C@H](CCCCN)NC(=O)[C@H](Cc1c[nH]c2ccccc12)NC(=O)[C@@H]1CCCN1C(=O)[C@H](CCCCN)NC(=O)[C@H](CCCNC(=N)N)NC(=O)[C@H](CCCNC(=N)N)NC(=O)[C@H](CC(N)=O)NC(=O)[C@@H]1CCCN1C(=O)[C@H](Cc1ccccc1)NC(=O)[C@H](Cc1c[nH]c2ccccc12)NC(=O)[C@@H](NC(=O)[C@H](CCCCN)NC(=O)[C@@H]1CCCN1C(=O)[C@H](CCC(N)=O)NC(=O)[C@H](CCCNC(=N)N)NC(=O)CCCCCNC(=O)CCCC[C@@H]1SC[C@@H]2NC(=O)N[C@@H]21)[C@@H](C)CC)C(=O)O [aCT1] ({Biotin-Ahx}-RQPKIWFPNRRKPWKKRPRPDDLEI-OH; N-terminus and C-terminus assumed)
Survival / LPS-induced mortality ([1]; aCT1 treatment 6 hrs post LPS inoculation (35 mg/kg/mouse)): significant protection against LPS-induced mortality; also recorded: significantly improved survival
Survival / LPS-induced mortality ([1]; intranasal 1000 uM aCT1 pre-treatment prior to lethal LPS (35 mg/kg/mouse)): significant protection against LPS-induced mortality; also recorded: significantly improved survival
TER (epithelial barrier integrity) [2]: significantly increased TER readings; also recorded: stabilized intercellular junctions
TER (endothelial barrier integrity) ([3]; aCT1 pre-treatment prior to 10 μg LPS): significantly improved endothelial TER readings; also recorded: preserved barrier integrity
TER (endothelial barrier integrity) ([3]; aCT1 treatment 24 hrs post LPS insult (10 μg LPS)): significantly improved endothelial TER readings; also recorded: preserved barrier integrity
MTD ([4]; intravenous administration, read-out: Dose at which clinical signs were observed (Maximum Tolerated Dose)): ≥ 10 mg/kg
NOAEL ([4]; intravenous bolus, read-out: no-observable-adverse-effect level (NOAEL)): 5 mg/kg
Tolerability (rats): well tolerated
Immunogenicity (anti-aCT1 antibodies) ([5]; any preclinical study or clinical trial): not immunogenic
half-life ([5]; human): 15 to 20 min
Drug related adverse events (human subjects [6]): no drug related adverse events
Systemic exposure (pharmacokinetic studies in clinical trials) (human subjects [6]): no systemic exposure
Efficacy and safety in acute and chronic skin injuries (human subjects [7]): demonstrated the efficacy and safety
